Data: PubChem BioAssay AID2060890 (Molecular Pharmacology Branch, DTP, NCI, 2025)

System: LG0703-F948-PDC complex spheroid viability
Assay: Anticancer human tumor LG0703-F948-PDC patient-derived lung adenocarcinoma cell line growth inhibition [RAS]
Conditions: for IC50: curve of first compound; for viability, T/C: stronger effect = lower value
Summary of the method: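 Agents were tested in combination matrices in half-log decrements from a top concentration at or near clinical Cmax (10 microM if undetermined). Targets were multi-cell spheroids of tumour lines plus HUVEC and MSC stromal cells.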

[1] = second compound 0.000949 µM, first compound 0.0316 µM
[2] = second compound 0.000949 µM, first compound 0.1 µM
[3] = second compound 0.000949 µM, first compound 0.316 µM
[4] = second compound 0.000949 µM, first compound 1 µM
[5] = second compound 0.000949 µM, first compound 3.16 µM
[6] = second compound 0.000949 µM, first compound 10 µM
[7] = second compound 0.003 µM, first compound 0.0316 µM
[8] = second compound 0.003 µM, first compound 0.1 µM
[9] = second compound 0.003 µM, first compound 0.316 µM
[10] = second compound 0.003 µM, first compound 1 µM
[11] = second compound 0.003 µM, first compound 3.16 µM
[12] = second compound 0.003 µM, first compound 10 µM
[13] = second compound 0.00949 µM, first compound 0.0316 µM
[14] = second compound 0.00949 µM, first compound 0.1 µM
[15] = second compound 0.00949 µM, first compound 0.316 µM
[16] = second compound 0.00949 µM, first compound 1 µM
[17] = second compound 0.00949 µM, first compound 3.16 µM
[18] = second compound 0.00949 µM, first compound 10 µM
[19] = second compound 0.03 µM, first compound 0.0316 µM
[20] = second compound 0.03 µM, first compound 0.1 µM
[21] = second compound 0.03 µM, first compound 0.316 µM
[22] = second compound 0.03 µM, first compound 1 µM
[23] = second compound 0.03 µM, first compound 3.16 µM
[24] = second compound 0.03 µM, first compound 10 µM
[25] = second compound 0.0949 µM, first compound 0.0316 µM
[26] = second compound 0.0949 µM, first compound 0.1 µM
[27] = second compound 0.0949 µM, first compound 0.316 µM
[28] = second compound 0.0949 µM, first compound 1 µM
[29] = second compound 0.0949 µM, first compound 3.16 µM
[30] = second compound 0.0949 µM, first compound 10 µM
[31] = second compound 0.3 µM, first compound 0.0316 µM
[32] = second compound 0.3 µM, first compound 0.1 µM
[33] = second compound 0.3 µM, first compound 0.316 µM
[34] = second compound 0.3 µM, first compound 1 µM
[35] = second compound 0.3 µM, first compound 3.16 µM
[36] = second compound 0.3 µM, first compound 10 µM
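Further: spheroids exposed to agents for 7 days.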
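Wherever viability, T/C is given: 100% = DMSO vehicle wells.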

Compound: NC1c2ccccc2OC12CCN(c1cnc3c(N4CCCc5ncccc54)n[nH]c3n1)CC2 (centres undefined) + CCn1c(-c2cccnc2C(C)OC)c2c3cc(ccc31)N1CCOC(CC(NC(=O)C(C(C)C)N(C)C(=O)C3(F)CCN(C(=O)C#CC(C)(C)N(C)C)CC3)C(=O)N3CCCC(N3)C(=O)OCC(C)(C)C2)C1
- IC50 (second compound 0.000949 µM): 52.3 nM
- IC50 (second compound 0.003 µM): 46.2 nM
- IC50 (second compound 0.00949 µM): 47.9 nM
- IC50 (second compound 0.03 µM): 38.7 nM
- IC50 (second compound 0.0949 µM): < 31.6 nM
- IC50 (second compound 0.3 µM): < 31.6 nM
- viability, T/C [1]: 55.4%
- viability, T/C [2]: 43.5%
- viability, T/C [3]: 22.8%
- viability, T/C [4]: 12.4%
- viability, T/C [5]: 4.73%
- viability, T/C [6]: 2.85%
- viability, T/C [7]: 57.1%
- viability, T/C [8]: 35.3%
- viability, T/C [9]: 21.8%
- viability, T/C [10]: 10.3%
- viability, T/C [11]: 6.54%
- viability, T/C [12]: 2.52%
- viability, T/C [13]: 59.1%
- viability, T/C [14]: 33.1%
- viability, T/C [15]: 20.6%
- viability, T/C [16]: 8.74%
- viability, T/C [17]: 5.35%
- viability, T/C [18]: 2.44%
- viability, T/C [19]: 53.6%
- viability, T/C [20]: 33.8%
- viability, T/C [21]: 18.5%
- viability, T/C [22]: 10.7%
- viability, T/C [23]: 4.93%
- viability, T/C [24]: 1.68%
- viability, T/C [25]: 42%
- viability, T/C [26]: 27.2%
- viability, T/C [27]: 12%
- viability, T/C [28]: 5.4%
- viability, T/C [29]: 2.95%
- viability, T/C [30]: 1.32%
- viability, T/C [31]: 25.2%
- viability, T/C [32]: 10.4%
- viability, T/C [33]: 7.14%
- viability, T/C [34]: 2.48%
- viability, T/C [35]: 2.04%
- viability, T/C [36]: 1.58%

Compound: CCC(CC)c1cc(NC2CCC(N)C2)n2nccc2n1 (centres undefined) + CCn1c(-c2cccnc2C(C)OC)c2c3cc(ccc31)N1CCOC(CC(NC(=O)C(C(C)C)N(C)C(=O)C3(F)CCN(C(=O)C#CC(C)(C)N(C)C)CC3)C(=O)N3CCCC(N3)C(=O)OCC(C)(C)C2)C1
- IC50 (second compound 0.000949 µM): 964 nM
- IC50 (second compound 0.003 µM): 1040 nM
- IC50 (second compound 0.00949 µM): 1600 nM
- IC50 (second compound 0.03 µM): 1090 nM
- IC50 (second compound 0.0949 µM): 360 nM
- IC50 (second compound 0.3 µM): < 31.6 nM
- viability, T/C [1]: 104%
- viability, T/C [2]: 89.9%
- viability, T/C [3]: 79.8%
- viability, T/C [4]: 54%
- viability, T/C [5]: 5.17%
- viability, T/C [6]: 0.33%
- viability, T/C [7]: 104%
- viability, T/C [8]: 96.8%
- viability, T/C [9]: 79.4%
- viability, T/C [10]: 58.2%
- viability, T/C [11]: 4.18%
- viability, T/C [12]: 0.26%
- viability, T/C [13]: 87.5%
- viability, T/C [14]: 79.6%
- viability, T/C [15]: 80.6%
- viability, T/C [16]: 81.6%
- viability, T/C [17]: 4.34%
- viability, T/C [18]: 0.8%
- viability, T/C [19]: 100%
- viability, T/C [20]: 91.1%
- viability, T/C [21]: 77.5%
- viability, T/C [22]: 58.6%
- viability, T/C [23]: 4.55%
- viability, T/C [24]: 0.32%
- viability, T/C [25]: 85.2%
- viability, T/C [26]: 65.5%
- viability, T/C [27]: 53.1%
- viability, T/C [28]: 37.2%
- viability, T/C [29]: 3.64%
- viability, T/C [30]: 0.29%
- viability, T/C [31]: 41.6%
- viability, T/C [32]: 41.2%
- viability, T/C [33]: 27.3%
- viability, T/C [34]: 22.4%
- viability, T/C [35]: 3.57%
- viability, T/C [36]: 0.69%
